In ChEMBL document CHEMBL5696441 (Nat Chem Biol, 2011) one finds inhibition data, which are given here for 1 compound.

The source made the active and inactive calls. The rule behind the calls is not given here.

This experiment has as its system THP-1. In words: Inhibition of ERK in human THP-1 cells assessed as CREB phosphorylation at Ser133 level at 4 uM preincubated for 30 mins in the presence of PMA stimulation for 1 hrs by western blot analysis. Type of experiment: cell-based. For orientation: In western blotting, separated proteins are transferred to a membrane and probed.

Turning to `C[S+]([O-])c1ccc(-c2nc(-c3ccc(F)cc3)c(-c3ccncc3)[nH]2)cc1` (stereo unspecified), the inhibition result is “Active”.
